Common to all, as to assay: Paper diffusion drug sensitivity test (zone of inhibition)
Holding throughout (type): cell-based

Test [1] relates to multi-drug resistant Staphylococcus aureus 18-171. The note with it: strain 18-171; LB agar, 37° C., 24 h; control drugs 30 μg/tablet, extract 128 μg/tablet; ≥17 mm sensitive, 15-16 mm intermediate, ≤14 mm resistant.
The test system of test [2] is Staphylococcus aureus (SAU). The note with it: LB agar, 37° C., 24 h, control drugs 30 μg/tablet, extract 128 μg/tablet, ≥17 mm sensitive, 15-16 mm intermediate, ≤14 mm resistant. On the procedure:
(§1) The bacteriostatic activity test experiment was carried out on the Syringa pubescens microphylla extract of the present invention, and the bacteriostatic effect was determined by a paper diffusion drug sensitivity method.
(§2) Experimental strains: Staphylococcus aureus (SAU), multi-drug resistant Staphylococcus aureus 18-206, multi-drug resistant Pseudomonas aeruginosa 18-261. The experimental strains were provided by Huashan Hospital, Fudan University (Institute of Antibiotics, Fudan University).
(§3) Drug sensitive paper: The drug sensitive paper is a special drug sensitive paper with a diameter of 6.35 mm and a water absorption of 0.02 mL. The control drugs were cefazolin sodium (30 μg/tablet), vancomycin (30 μg/tablet) and gentamicin (30 μg/tablet); the test drug was the Syringa pubescens microphylla extract (128 μg/tablet).
(§4) The experimental strains were inoculated in a non-selective medium and incubated in air at 37 C for 24 hours. A single colony was selected and inoculated into a broth medium, and incubated at 35±2° C. for 6 hours. LA broth medium was used to correct the concentration of the bacterial solution to 1.5×10^8 CFU/mL to obtain a bacterial suspension.
(§5) Weighing LB dry powder, autoclaving at 103.4 Kpa, 121.3° C. for 15 min, then placing in a 40° C.-50° C. water bath. Sterile empty plates (with an inner diameter of 9 cm) were placed on a water platform of the ultra-clean table. LB solution was poured to the plates, with agar thickness of 3 mm-4 mm. After the plates were cooled at room temperature, they were stored in a refrigerator at 2° C. to 8° C. Bacteria liquid was spread evenly with a sterile cotton swab on the surface of the LB plate 3 times. The LB plate was dried at room temperature for 3 min to 5 min. An antibacterial drug paper sheet was placed in the plate using sterile tweezers. The plates were placed in a 37° C. incubator for 24 h. The diameter of inhibition zone was measured. 0.5% DMSO solution was used as the negative control. The diameter of inhibition zone was to measure the antibacterial activity. Inhibition zone≥17 mm, sensitive; inhibition zone=15 mm-16 mm, intermediate; inhibition zone≤14 mm, resistant.

The test system of test [3] is multi-drug resistant Pseudomonas aeruginosa 18-261. To be noted: strain 18-261; LB agar, 37° C., 24 h; control drugs 30 μg/tablet, extract 128 μg/tablet; ≥17 mm sensitive, 15-16 mm intermediate, ≤14 mm resistant. On the procedure:
as §1, §2, §3, §4, §5

From patent publication US11712457B2, “Syringa pubescens microphylla seed extract composition and its application in antibiotic-resistant infections” (SHAANXI UNIVERSITY OF SCIENCE AND TECHNOLOGY, priority 2020, dated 2023) come the findings set out here.

For `Cc1nnc(SCC2=C(C(=O)O)N3C(=O)[C@@H](NC(=O)Cn4cnnn4)[C@H]3SC2)s1` [cefazolin sodium], the “Diameter of Inhibition Zone” value in test [1] was 0 mm; in test [2] it was 10 mm; in test [3] it was 0 mm.
As to gentamicin, the “Diameter of Inhibition Zone” value in test [1] is on record as 16 mm; in test [2] it was 18 mm; in test [3], 17 mm.
Regarding `CN[C@H](CC(C)C)C(=O)N[C@H]1C(=O)N[C@@H](CC(N)=O)C(=O)N[C@H]2C(=O)N[C@H]3C(=O)N[C@H](C(=O)N[C@H](C(=O)O)c4cc(O)cc(O)c4-c4cc3ccc4O)[C@H](O)c3ccc(c(Cl)c3)Oc3cc2cc(c3O[C@@H]2O[C@H](CO)[C@@H](O)[C@H](O)[C@H]2O[C@H]2C[C@](C)(N)[C@H](O)[C@H](C)O2)Oc2ccc(cc2Cl)[C@H]1O` [vancomycin], the results for the “Diameter of Inhibition Zone” value in test [1] and in test [2] were 17 mm and 23 mm, respectively.
